We go through three compounds from article PMC4713719 (European Journal of Clinical Pharmacology, 2015).

Read-outs that look alike come from different tables or passages of the source.

In series [1] the test system is patients with relapsed and refractory multiple myeloma. The experiment in a line: Grade 3 or 4 adverse events and MTD in the B2207 trial. It counts as in vivo, human. The source says:
The two combination studies, B2207 and PANORAMA-1, reported efficacy data in patients with relapsed and refractory multiple myeloma. In the current analysis, exposure–efficacy relationship was explored using the efficacy data (ORR based on IMWG criteria) from the B2207 trial.

Series [2] has as its system patients with multiple myeloma. To be noted: cited from earlier work.
For series [3] the following is noted: read-out: Projected Cmax; 20 mg oral dose used in the B2207 study.
A short description of series [4]: Panobinostat plasma PK in the PANORAMA-1 phase 3 trial (Japan subset). To be noted: PANORAMA-1 cycle 1 day 8, PAN + BTZ + Dex, N = 12. The format is in vivo, human. The protocol:
Each phase was of 24 weeks duration with treatment phase 1 consisting of eight, 3-week cycles and treatment phase 2 consisting of four, 6-week cycles.
In this study, plasma samples for panobinostat and bortezomib were collected in a subset of Asian patients. Blood samples were taken at scheduled time points (cycle 1, day 1, and cycle 1 day 8 at pre-dose and at 0.5, 1, 2, 3, 4, 8, 24, and 48 h post-dose) for PK analysis.

On the set-up of series [5]: method as in unpublished data. To be noted: 20 mg panobinostat + 25 mg lenalidomide + 40 mg dexamethasone (day 1 through day 4); ref unpublished data; cited from earlier work.
Series [6] has as its system patients. Further details: method as in historical single-agent studies. To be noted: 20 mg PAN (tiw qw) single agent, pooled, N = 309, ref historical single-agent studies, cited from earlier work.
The conditions of series [7]: cited from earlier work.
For series [8] the following is noted: cited from earlier work. The source holds these as a separate data set.
Series [9] is described as follows: Panobinostat plasma PK in the B2207 phase 1b trial (LC-MS/MS, non-compartmental). To be noted: B2207, PAN + BTZ + Dex vs historical single-agent trials. The protocol:
In the dose escalation part, PK samples were collected on cycle 1, day 8, and cycle 1, day 15 at pre-dose, and various intervals post-dose up to 48 h.

For series [10] the following is noted: patients with solid tumors; cited from earlier work.
In series [11] the test system is class I, II, and IV histone deacetylases. To be noted: cited from earlier work.
The test system of series [12] is CYP3A. To be noted: strong CYP3A inhibitor, cancer patients; cited from earlier work.
Series [13] concerns patients with advanced hematologic malignancies. To be noted: panobinostat alone; cited from earlier work.
Series [14] relates to CYP2D6. To be noted: sensitive CYP2D6 substrate, cancer patients; cited from earlier work.
For series [15] the following is noted: 20 mg PAN single agent (tiw qw), multiple oral dose, N = 32, cited from earlier work.
Where [16] appears, read: human, plasma, oral, geometric mean (% CV).

A word on the half-life: it is the time needed for the level to fall by half in the phase considered.

Turning to `CC(C)C[C@H](NC(=O)[C@H](Cc1ccccc1)NC(=O)c1cnccn1)B(O)O` [bortezomib], the MTD in [1] (B2207, twice-weekly (biw), in combination with panobinostat) worked out at 1.3 mg/m^2. In addition, the “Grade ≥3 diarrhea” value is 5% in series [2] (1.3 mg/m^2 IV bortezomib) and 2% in series [2] (1.3 mg/m^2 SC bortezomib).
For the compound `C[C@@H]1C[C@H]2[C@@H]3CCC4=CC(=O)C=C[C@]4(C)[C@@]3(F)[C@@H](O)C[C@]2(C)[C@@]1(O)C(=O)CO` [dexamethasone], the Cmax in series [3] is roughly 30 nM.
For the compound `Cc1[nH]c2ccccc2c1CCNCc1ccc(/C=C/C(=O)NO)cc1` [panobinostat, Panobinostat], the AUC0-24 in [4] (geometric mean (% CV)) is given as 95.2 (28.4) ng h/mL. In series [4] (setting [16]), the Cmax was 15.3 ng/mL and the half-life is 16.7 h. Further, the AUC(0-t) in [4] (human, plasma, oral, geometric mean (% CV), read-out: AUC0-24) was 95 ng·h/mL. In addition, the Vd/F in series [4] (human, plasma, oral, geometric mean (% CV), read-out: Vz/F) stood at 3550 L. In addition, the Tmax in series [4] (human, plasma, oral, median (range)) worked out at 2.02 h. Besides, the “Decrease in PAN exposure compared to historical single-agent data” value in series [5] is “approximately 60%”. Also, in [6], the “Grade 3 or 4 anemia” value was 29 (9) %, the “Grade 3 or 4 diarrhea” value is given as “about 3%”, the “Grade 3 or 4 fatigue” value was 13 (4) % and the “Grade 3 or 4 nausea” value is reported as 6 (2) %. Further, in [6], the “Grade 3 or 4 neutropenia” value is reported as 42 (14) %, the “Grade 3 or 4 thrombocytopenia” value is on record as “about 21%” and the “Grade 3 or 4 vomiting” value was 4 (1) %. In addition, in [6] (listed as PAN), the “Grade 3 or 4 diarrhea” value is on record as 10 (3) % and the “Grade 3 or 4 thrombocytopenia” value was 66 (21) %. Moreover, in series [7], the “Fraction of the radiolabeled dose recovered in the feces” value is listed as 44 to 77%; the “Fraction of the radiolabeled dose recovered in the urine” value is listed as 29 to 51%; the “Number of metabolites formed” value is on record as “over 70”; the “Unchanged panobinostat in the feces, % of the administered dose” value was less than 3.5%. Further, the “Effective half-life (T1/2)” value in [7] (single agent, based on the rate of accumulation) was “approximately 16 h”. The “Median Tmax” value in series [7] (single agent, oral administration) is listed as “about 2 h”. Moreover, the Accumulation entry in series [7] (single-agent trial) is “approximately 1.1 fold”. Moreover, the “Dose linearity of pharmacokinetics” value in series [7] (tested dose range between 10 and 30 mg) is “approximately linear”. For the same compound, the Steady state reached result in series [7] (thrice-weekly (tiw) dosing schedule) is given as “after the third dose”. The “Effect of fed or fasting state on oral bioavailability” value in series [8] was “marginally affected”. The “Lower panobinostat exposure at MTD in combination vs single-agent trials” value in [9] is on record as roughly 50%. Moreover, the MTD in series [1] (B2207, tiw, in combination with bortezomib) worked out at 20 mg. Moreover, the “Effect of mild, moderate, or severe renal impairment on plasma exposure” value in series [10] is given as “did not alter the plasma exposure”. Besides, the “Activity against histone deacetylases” value in [11] was “low nanomolar activity”. In addition, in [12], the “Increase of panobinostat systemic exposure by ketoconazole” value was 80%. Also, in [13], the “Grade ≥3 thrombocytopenia” value is given as 55%. In addition, the “Increase of dextromethorphan systemic exposure by panobinostat” value in [14] is 60%. Besides, in series [15] (geometric mean (% CV)), the AUC0-24 is 139 (71) ng h/mL, the Cmax is on record as 21.6 (83) ng/mL and the T1/2 was 16.9 (33) h. Further, the Tmax in [15] (median (range)) was 1 (0.5–8) h.
